Experimental data reported in patent US20260365647A1, “AKT1 MODULATORS” (Alterome Therapeutics, Inc., priority 2022, published 2026).

Target: T1, AKT1-E17K (Homo sapiens, UniProt P31749, E17K)
T1 construct: host or cells: HEK-293 (ATCC CRL-1573)
Test: NanoBRET Target Engagement (TE) Assay
Type: cell-based
Source text: The NanoBRET™ Target Engagement (TE) Intracellular Kinase Assays are based on the NanoBRET™ System (Promega Corporation), an energy transfer technique designed to measure molecular proximity in living cells. The NanoBRET™ TE Assays measure the apparent affinity of test compounds by competitive displacement of the NanoBRET™ tracer compound, which is a cell permeable molecule engineered to be reversibly bound to a NanoLuc® luciferase-kinase fusion expressed in cells. For compound screening, when a test compound binds to the selected kinase, the BRET signal is attenuated. […] All cells were evaluated for viability prior to transfection and optimization of the transfection was done prior to experimentation. […] Following transfection, cells were washed and resuspended in Opti-MEM. NanoBRET assays were performed in white, 384-well plates (Corning) at a density of […]. All example compounds were prepared as concentrated stock solutions in DMSO (Sigma-Aldrich). Compounds are dissolved in DMSO to make 10 mM stock solution. […] A Labcyte ECHO 550 compound dispenser was used to facilitate compound transfer directly to cells. Cells were equilibrated for 2 hr with energy transfer probes and example compound prior to BRET measurements. […] For target engagement analysis, the energy transfer probes were added to the cells at concentrations optimized for the target in question (AKT E17K). Following compound incubation, NanoBRET NanoGlo Substrate (Promega Cat #N157D) and Extracellular Nanoluc Inhibitor (Promega Cat #N235C) was added according to the manufacturer's recommended protocol, and luminescence was measured on Envision Reader (Perkin Elmer) Multimode Luminometer equipped with 450 nmBPfilter (donor) and 600 nmLPfilter (acceptor), using 0.5 s integration time. Milli-BRET units (mBU) are calculated by multiplying the raw BRET values by 1000. Apparent tracer affinity values (EC50) were determined using the sigmoidal dose-response (variable slope). Competitive displacement data were then plotted and data were fit to determine the EC50 value for each example compound.

T1 sequence (P31749 whole entry E17K): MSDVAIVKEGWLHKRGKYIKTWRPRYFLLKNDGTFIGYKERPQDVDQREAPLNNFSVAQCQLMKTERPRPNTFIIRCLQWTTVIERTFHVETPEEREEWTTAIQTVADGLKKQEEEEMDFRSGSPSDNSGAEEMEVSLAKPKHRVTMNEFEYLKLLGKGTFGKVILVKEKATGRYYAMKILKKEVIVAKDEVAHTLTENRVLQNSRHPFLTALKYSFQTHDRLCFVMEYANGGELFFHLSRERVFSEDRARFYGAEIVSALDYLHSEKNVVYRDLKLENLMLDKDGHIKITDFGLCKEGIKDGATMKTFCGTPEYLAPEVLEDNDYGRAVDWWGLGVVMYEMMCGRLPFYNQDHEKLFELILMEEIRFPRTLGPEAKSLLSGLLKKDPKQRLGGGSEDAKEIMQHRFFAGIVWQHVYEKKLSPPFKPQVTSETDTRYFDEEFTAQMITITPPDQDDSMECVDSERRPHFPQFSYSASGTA

IC50 [nM]	SMILES
60 to 600	Nc1ncccc1-c1nc2cccnc2n1-c1ccc(CN2CCN(c3ccc(C=O)c(O)c3)CC2)cc1 [Example 16, 4-(4-(4-(2-(2-Aminopyridin-3-yl)-3H-imidazo[4,5-b]pyridin-3-yl)benzyl)piperazin-1-yl)-2-hydroxybenzaldehyde]
60 to 600	CN(Cc1ccc(-n2c(-c3cccnc3N)nc3ccc(-c4ccccc4)nc32)cc1)c1ccc(C=O)c(O)c1 [Example 17, 4-((4-(2-(2-Aminopyridin-3-yl)-5-phenyl-3H-imidazo[4,5-b]pyridin-3-yl)benzyl)(methyl)amino)-2-hydroxybenzaldehyde]
> 600	CN(Cc1ccc(-n2c(-c3cccnc3N)nc3ccc(-c4ccccc4)nc32)cc1)c1ccc(O)c(C=O)c1 [Example 18, 5-((4-(2-(2-Aminopyridin-3-yl)-5-phenyl-3H-imidazo[4,5-b]pyridin-3-yl)benzyl)(methyl)amino)-2-hydroxybenzaldehyde]
60 to 600	Nc1ncccc1-c1nc2ccc(-c3ccccc3)nc2n1-c1ccc(CN2CCN(c3cccc(C=O)c3O)CC2)cc1 [Example 23, 3-(4-(4-(2-(2-aminopyridin-3-yl)-5-phenyl-3H-imidazo[4,5-b]pyridin-3-yl)benzyl)piperazin-1-yl)-2-hydroxybenzaldehyde]
60 to 600	Nc1ncccc1-c1nc2ccc(-c3ccccc3)nc2n1-c1ccc(CN2CCN(c3cc(O)c(C=O)c(F)c3)CC2)cc1 [Example 24, 4-(4-(4-(2-(2-Aminopyridin-3-yl)-5-phenyl-3H-imidazo[4,5-b]pyridin-3-yl)benzyl)piperazin-1-yl)-2-fluoro-6-hydroxybenzaldehyde]
15 to 60	Nc1ncccc1-c1nc2ccc(-c3ccccc3)nc2n1-c1ccc(CN2CCN(c3cc(O)c(C=O)cc3F)CC2)cc1 [Example 25, 4-(4-(4-(2-(2-Aminopyridin-3-yl)-5-phenyl-3H-imidazo[4,5-b]pyridin-3-yl)benzyl)piperazin-1-yl)-5-fluoro-2-hydroxybenzaldehyde]
15 to 60	Nc1ncccc1-c1nc2ccc(-c3ccccc3)nc2n1-c1ccc(CN2CCN(c3ccc(C=O)c(O)c3F)CC2)cc1 [Example 26, 4-(4-(4-(2-(2-Aminopyridin-3-yl)-5-phenyl-3H-imidazo[4,5-b]pyridin-3-yl)benzyl)piperazin-1-yl)-3-fluoro-2-hydroxybenzaldehyde]
60 to 600	Nc1ncccc1-c1nc2ccc(-c3ccccc3)nc2n1-c1ccc(CN2CCN(c3cc(O)c(C=O)cc3Br)CC2)cc1 [Example 27, 4-(4-(4-(2-(2-Aminopyridin-3-yl)-5-phenyl-3H-imidazo[4,5-b]pyridin-3-yl)benzyl)piperazin-1-yl)-5-bromo-2-hydroxybenzaldehyde]
60 to 600	C=Cc1cc(C=O)c(O)cc1N1CCN(Cc2ccc(-n3c(-c4cccnc4N)nc4ccc(-c5ccccc5)nc43)cc2)CC1 [Example 28, 4-(4-(4-(2-(2-Aminopyridin-3-yl)-5-phenyl-3H-imidazo[4,5-b]pyridin-3-yl)benzyl)piperazin-1-yl)-2-hydroxy-5-vinylbenzaldehyde]
60 to 600	Nc1ncccc1-c1nc2ccc(C3=CCOCC3)nc2n1-c1ccc(CN2CCN(C(=O)c3ccc(O)c(C=O)c3)CC2)cc1 [Example 29, 5-(4-(4-(2-(2-Aminopyridin-3-yl)-5-(3,6-dihydro-2H-pyran-4-yl)-3H-imidazo[4,5-b]pyridin-3-yl)benzyl)piperazine-1-carbonyl)-2-hydroxybenzaldehyde]
60 to 600	Nc1ncccc1-c1nc2ccc(C3=CCOCC3)nc2n1-c1ccc(CN2CCN(C(=O)c3ccc(C=O)c(O)c3)CC2)cc1 [Example 30, 4-(4-(4-(2-(2-Aminopyridin-3-yl)-5-(3,6-dihydro-2H-pyran-4-yl)-3H-imidazo[4,5-b]pyridin-3-yl)benzyl)piperazine-1-carbonyl)-2-hydroxybenzaldehyde]
60 to 600	Nc1ncccc1-c1nc2ccc(N3CCOCC3)nc2n1-c1ccc(CN2CCN(c3ccc(C=O)c(O)c3)CC2)cc1 [Example 31, 4-(4-(4-(2-(2-Aminopyridin-3-yl)-5-morpholino-3H-imidazo[4,5-b]pyridin-3-yl)benzyl)piperazin-1-yl)-2-hydroxybenzaldehyde]
> 600	Nc1ncccc1-c1nc2ccc(N3CCOCC3)nc2n1-c1ccc(CN2CCN(C(=O)c3ccc(O)c(C=O)c3)CC2)cc1 [Example 32, 5-(4-(4-(2-(2-Aminopyridin-3-yl)-5-morpholino-3H-imidazo[4,5-b]pyridin-3-yl)benzyl)piperazine-1-carbonyl)-2-hydroxybenzaldehyde]
> 600	Nc1ncccc1-c1nc2ccc(N3CCOCC3)nc2n1-c1ccc(CN2CCN(C(=O)c3ccc(C=O)c(O)c3)CC2)cc1 [Example 33, 4-(4-(4-(2-(2-Aminopyridin-3-yl)-5-morpholino-3H-imidazo[4,5-b]pyridin-3-yl)benzyl)piperazine-1-carbonyl)-2-hydroxybenzaldehyde]
60 to 600	N#Cc1cccc(-c2ccc3nc(-c4cccnc4N)n(-c4ccc(CN5CCN(C(=O)c6ccc(O)c(C=O)c6)CC5)cc4)c3n2)c1 [Example 34, 3-(2-(2-Aminopyridin-3-yl)-3-(4-((4-(3-formyl-4-hydroxybenzoyl)piperazin-1-yl)methyl)phenyl)-3H-imidazo[4,5-b]pyridin-5-yl)benzonitrile]
60 to 600	N#Cc1cccc(-c2ccc3nc(-c4cccnc4N)n(-c4ccc(CN5CCN(C(=O)c6ccc(C=O)c(O)c6)CC5)cc4)c3n2)c1 [Example 35, 3-(2-(2-Aminopyridin-3-yl)-3-(4-((4-(4-formyl-3-hydroxybenzoyl)piperazin-1-yl)methyl)phenyl)-3H-imidazo[4,5-b]pyridin-5-yl)benzonitrile]
> 600	N#Cc1ccccc1-c1ccc2nc(-c3cccnc3N)n(-c3ccc(CN4CCN(C(=O)c5ccc(O)c(C=O)c5)CC4)cc3)c2n1 [Example 36, 2-(2-(2-aminopyridin-3-yl)-3-(4-((4-(3-formyl-4-hydroxybenzoyl)piperazin-1-yl)methyl)phenyl)-3H-imidazo[4,5-b]pyridin-5-yl)benzonitrile]
60 to 600	N#Cc1ccccc1-c1ccc2nc(-c3cccnc3N)n(-c3ccc(CN4CCN(C(=O)c5ccc(C=O)c(O)c5)CC4)cc3)c2n1 [Example 37, 2-(2-(2-Aminopyridin-3-yl)-3-(4-((4-(4-formyl-3-hydroxybenzoyl)piperazin-1-yl)methyl)phenyl)-3H-imidazo[4,5-b]pyridin-5-yl)benzonitrile]
60 to 600	N#Cc1ccc(-c2ccc3nc(-c4cccnc4N)n(-c4ccc(CN5CCN(C(=O)c6ccc(O)c(C=O)c6)CC5)cc4)c3n2)cc1 [Example 38, 4-(2-(2-Aminopyridin-3-yl)-3-(4-((4-(3-formyl-4-hydroxybenzoyl)piperazin-1-yl)methyl)phenyl)-3H-imidazo[4,5-b]pyridin-5-yl)benzonitrile]
60 to 600	N#Cc1ccc(-c2ccc3nc(-c4cccnc4N)n(-c4ccc(CN5CCN(C(=O)c6ccc(C=O)c(O)c6)CC5)cc4)c3n2)cc1 [Example 39, 4-(2-(2-Aminopyridin-3-yl)-3-(4-((4-(4-formyl-3-hydroxybenzoyl)piperazin-1-yl)methyl)phenyl)-3H-imidazo[4,5-b]pyridin-5-yl)benzonitrile]
60 to 600	Nc1ncccc1-c1nc2ccc(-c3cccc(F)c3)nc2n1-c1ccc(CN2CCN(C(=O)c3ccc(O)c(C=O)c3)CC2)cc1 [Example 40, 5-(4-(4-(2-(2-Aminopyridin-3-yl)-5-(3-fluorophenyl)-3H-imidazo[4,5-b]pyridin-3-yl)benzyl)piperazine-1-carbonyl)-2-hydroxybenzaldehyde]
